Measured values from patent US7414107B2, “Pharmacologically active peptide conjugates having a reduced tendency towards enzymatic hydrolysis” (priority 1998, dated 2008).

Key:
PTH (1-34)-antibody = details: EIAS(h)-6101 from Peninsula Laboratories; cited from earlier work
carboxypeptidase A = molecular target: T1, carboxypeptidase A (Bos taurus, UniProt P00730); test: Hydrolysis kinetics in carboxypeptidase A solution; type: in vitro ADME, bovine; details: 50 mM phosphate buffer pH 7.4, 37° C., carboxypeptidase A 1 U/ml
T1 construct: purchased Sigma, UK type I (catalogue number not given); host or cells: bovine pancreas
T1 sequence (P00730 111-419): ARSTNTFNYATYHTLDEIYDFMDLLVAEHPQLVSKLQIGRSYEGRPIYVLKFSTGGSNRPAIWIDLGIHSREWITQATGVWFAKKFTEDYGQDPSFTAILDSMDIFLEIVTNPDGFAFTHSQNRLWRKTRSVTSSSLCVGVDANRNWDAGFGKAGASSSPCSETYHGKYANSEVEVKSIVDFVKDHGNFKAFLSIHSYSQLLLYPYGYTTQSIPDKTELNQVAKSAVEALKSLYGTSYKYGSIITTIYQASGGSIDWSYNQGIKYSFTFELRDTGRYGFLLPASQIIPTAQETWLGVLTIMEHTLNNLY
Method: (§1) Carboxypeptidase A (EC 3.4.17.1) type I from bovine pancreas, leucine aminopeptidase (EC 3.4.11.1) type III-CP from porcine kidney, α-chymotrypsin (EC […]) from bovine pancreas, and pepsin A (EC 3.4.23.1) from porcine stomach mucosa […] were obtained from Sigma, UK.
(§2) Gradient HPLC analysis of samples from in vitro kinetic measurements performed as described below was performed using a Hewlett Packard HP 1100 HPLC system consisting of a HP 1100 Binary Pump, a HPI 100 Autosampler, a HPI 100 Column Thermostat and a HP 1100 Variable Wavelength Detector. A Merck LiChroCART column (125×4 mm I.D.) and a LiChroCART precolumn (4×4 mm I.D.) packed with Lichrospher RP-18 (5 .μum particles) was used. The column was kept at 25° C. or 75° C. and the column effluent was measured by UV detection at 215 run. Separation of the peptide conjugates or the native peptides from degradation products and constituents of the reaction solutions was accomplished using gradient elution of the column with mixtures of mobile phase A (0.1 vol % TFA in water) and mobile phase B (0.085 vol % TFA in acetonitrile) at a flow rate of 1 ml/min.
(§3) The degradation of the peptide conjugate and the corresponding native peptide were studied at 37° C. in a 50 mM phosphate buffer solution at pH 7.4 containing leucine arninopeptidase (25 U/ml) or carboxypeptidase A (1 or 25 U/ml). Experiments were initiated by addition of an aliquot (100 μl) of a stock solution (1 mg/ml) of the peptide conjugate or the native peptide to 900 μl preheated enzyme solution giving a final concentration of ˜0.1 mg/ml (10^−5-10^−4M) of the peptide conjugate or the native peptide. The peptide/enzyme solution was kept at 37° C. using a SHT200D block heater from Stuart Scientific. At appropriate time intervals, samples of 100 μl were withdrawn from the peptide/enzyme solution, mixed thoroughly with 20 μl 25% TFA in acetonitrile in order to stop the enzymatic degradation process and analysed by HPLC as described above. Half-lives (t1/2) for the peptide conjugate and the corresponding native peptide in the enzyme solutions were calculated from plots of the natural logarithm to the concentration of the residual peptide (HPLC peak heights) against time using the formula t/2=1/kobs×ln(2), where kobs is the apparent first-order rate constant for the observed degradation.

osteoblast = test: Osteoblast retraction assay; type: cell-based, mice; details: for Retraction assay % Retracted cells: 10 nM, 1 h, mouse calvaria osteoblasts; for activity relative to the mother compound hPTH(1-34): Osteoblast retraction assay
Method: Retraction assays were performed with osteoblast prepared from calvaria of 1-day old mice according to published protocols (Miller et al., 1976, Science 192:1340-1343). In brief, osteoblasts were seeded in serum-free minimal essential medium-α (αMEM) at a density of 3000 cells per cm^2 into 96-well tissue culture plates coated with 50 μg/ml of type I collagen in phosphate-buffered saline containing 0.1% bovine serum albumin (PBS). One day after plating, PTH compounds were added to a final concentration of 10 nM and incubation was carried out for 1 h. Cells were then fixed and stained with toluidine blue, and the number of retracted cells was counted by visual inspection.

leucine aminopeptidase = molecular target: T2, leucine aminopeptidase (Sus scrofa, UniProt P28839); test: Hydrolysis kinetics in leucine aminopeptidase solution; type: in vitro ADME, porcine; details: 50 mM phosphate buffer pH 7.4, 37° C., leucine aminopeptidase 25 U/ml; for half-life: pig
T2 construct: purchased Sigma, UK type III-CP (catalogue number not given); host or cells: porcine kidney
T2 sequence (P28839 1-519): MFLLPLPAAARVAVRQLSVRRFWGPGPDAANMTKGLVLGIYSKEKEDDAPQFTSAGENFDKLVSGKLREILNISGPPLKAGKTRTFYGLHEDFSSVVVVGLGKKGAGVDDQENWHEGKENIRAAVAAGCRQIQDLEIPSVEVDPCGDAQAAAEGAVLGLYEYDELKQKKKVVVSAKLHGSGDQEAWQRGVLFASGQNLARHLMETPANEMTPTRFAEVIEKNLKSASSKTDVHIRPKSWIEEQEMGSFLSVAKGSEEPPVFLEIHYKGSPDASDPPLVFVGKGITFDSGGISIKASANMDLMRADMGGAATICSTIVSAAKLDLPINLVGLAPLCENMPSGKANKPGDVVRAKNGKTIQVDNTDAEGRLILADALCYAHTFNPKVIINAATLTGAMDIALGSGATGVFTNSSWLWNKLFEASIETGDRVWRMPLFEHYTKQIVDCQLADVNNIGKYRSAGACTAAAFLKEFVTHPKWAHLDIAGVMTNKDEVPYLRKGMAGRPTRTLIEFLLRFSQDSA
Method: as §1, §2, §3

In the case of “hPTH(1-38): human PTH fragment listed in the EIA kit specificity (SVSEIQLMHNLGKHLNSMERVEWLRKKLQDVHNFVALG; Parathyroid hormone; UniProt P01270 32-69, looked up, fragment)”, the “Specificity of the assay” value (PTH (1-34)-antibody) is given as 100%.

In the case of `CC[C@H](C)[C@H](NC(=O)[C@H](CCC(=O)O)NC(=O)[C@H](CO)NC(=O)[C@@H](NC(=O)[C@@H](N)CO)C(C)C)C(=O)N[C@@H](CCC(N)=O)C(=O)N[C@@H](CC(C)C)C(=O)N[C@@H](CCSC)C(=O)N[C@@H](Cc1c[nH]cn1)C(=O)N[C@@H](CC(N)=O)C(=O)N[C@@H](CC(C)C)C(=O)NCC(=O)N[C@@H](CCCCN)C(=O)N[C@@H](Cc1c[nH]cn1)C(=O)N[C@@H](CC(C)C)C(=O)N[C@@H](CC(N)=O)C(=O)N[C@@H](CO)C(=O)N[C@@H](CCSC)C(=O)N[C@@H](CCC(=O)O)C(=O)N[C@@H](CCCNC(=N)N)C(=O)N[C@H](C(=O)N[C@@H](CCC(=O)O)C(=O)N[C@@H](Cc1c[nH]c2ccccc12)C(=O)N[C@@H](CC(C)C)C(=O)N[C@@H](CCCNC(=N)N)C(=O)N[C@@H](CCCCN)C(=O)N[C@@H](CCCCN)C(=O)N[C@@H](CC(C)C)C(=O)N[C@@H](CCC(N)=O)C(=O)N[C@@H](CC(=O)O)C(=O)N[C@H](C(=O)N[C@@H](Cc1c[nH]cn1)C(=O)N[C@@H](CC(N)=O)C(=O)N[C@@H](Cc1ccccc1)C(=O)N[C@@H](CCCCN)C(=O)N[C@@H](CCCCN)C(=O)N[C@@H](CCCCN)C(=O)N[C@@H](CCCCN)C(=O)N[C@@H](CCCCN)C(=O)N[C@@H](CCCCN)C(=O)O)C(C)C)C(C)C` [PTH(1-34)(Human)-(Lys)6-OH, H-Ser-Val-Ser-Glu-Ile-Gln-Leu-Met-His-Asn-Leu-Gly-Lys -His-Leu-Asn-Ser-Met-Glu-Arg-Val-Glu-Trp-Leu-Arg-Lys-Lys-Leu-Gln-Asp-Val -His-Asn-Phe-Lys6-OH], the half-life (carboxypeptidase A) is reported as 0.783 h, the “pseudo first-order rate constant for the degradation” value (“pseudo first-order rate constant” for short) (carboxypeptidase A) is reported as 0.015 min⁻¹ and the “Retraction assay % Retracted cells” value (osteoblast) is reported as 37.4%. The “activity relative to the mother compound hPTH(1-34)” value (osteoblast) was 55%, the “pseudo first-order rate constant” value (leucine aminopeptidase) was 0.0012 min⁻¹ and the half-life (leucine aminopeptidase) was 9.63 h.

For “ratPTH(1-34): rat PTH fragment listed in the EIA kit specificity (AVSEIQLMHNLGKHLASVERMQWLRKKLQDVHNF; Parathyroid hormone; UniProt P04089 32-65, looked up, fragment)”, the “Specificity of the assay” value (PTH (1-34)-antibody) is given as 0%.

In the case of “hPTH(39-68): human PTH fragment listed in the EIA kit specificity (APLAPRDAGSQRPRKKEDNVLVESHEKSLG; Parathyroid hormone; UniProt P01270 70-99, looked up, fragment)”, the “Specificity of the assay” value (PTH (1-34)-antibody) is given as 0%.

In the case of `CC[C@H](C)[C@H](NC(=O)[C@H](CCC(=O)O)NC(=O)[C@H](CO)NC(=O)[C@@H](NC(=O)[C@H](CO)NC(=O)[C@H](CCCCN)NC(=O)[C@H](CCCCN)NC(=O)[C@H](CCCCN)NC(=O)[C@H](CCCCN)NC(=O)[C@H](CCCCN)NC(=O)[C@@H](N)CCCCN)C(C)C)C(=O)N[C@@H](CCC(N)=O)C(=O)N[C@@H](CC(C)C)C(=O)N[C@@H](CCSC)C(=O)N[C@@H](Cc1c[nH]cn1)C(=O)N[C@@H](CC(N)=O)C(=O)N[C@@H](CC(C)C)C(=O)NCC(=O)N[C@@H](CCCCN)C(=O)N[C@@H](Cc1c[nH]cn1)C(=O)N[C@@H](CC(C)C)C(=O)N[C@@H](CC(N)=O)C(=O)N[C@@H](CO)C(=O)N[C@@H](CCSC)C(=O)N[C@@H](CCC(=O)O)C(=O)N[C@@H](CCCNC(=N)N)C(=O)N[C@H](C(=O)N[C@@H](CCC(=O)O)C(=O)N[C@@H](Cc1c[nH]c2ccccc12)C(=O)N[C@@H](CC(C)C)C(=O)N[C@@H](CCCNC(=N)N)C(=O)N[C@@H](CCCCN)C(=O)N[C@@H](CCCCN)C(=O)N[C@@H](CC(C)C)C(=O)N[C@@H](CCC(N)=O)C(=O)N[C@@H](CC(=O)O)C(=O)N[C@H](C(=O)N[C@@H](Cc1c[nH]cn1)C(=O)N[C@@H](CC(N)=O)C(=O)N[C@@H](Cc1ccccc1)C(=O)O)C(C)C)C(C)C` [(Lys)6-PTH(1-34)(Human)-OH, H-(Lys)6-(-Ser-Val-Ser-Glu-Ile-Gln-Leu-Met-His-Asn-Leu -Gly-Lys-His-Leu-Asn-Ser-Met-Glu-Arg-Val-Glu-Trp-Leu-Arg-Lys-Lys-Leu-Gln -Asp-Val-His-Asn-Phe-OH], the “Retraction assay % Retracted cells” value (osteoblast) is reported as 34.7%, the “activity relative to the mother compound hPTH(1-34)” value (osteoblast) is reported as 49% and the “pseudo first-order rate constant” value (leucine aminopeptidase) is reported as 0.0035 min⁻¹. The half-life (leucine aminopeptidase) was 3.3 h.

In the case of “hPTH(1-44): human PTH fragment listed in the EIA kit specificity (SVSEIQLMHNLGKHLNSMERVEWLRKKLQDVHNFVALGAPLAPR; Parathyroid hormone; UniProt P01270 32-75, looked up, fragment)”, the “Specificity of the assay” value (PTH (1-34)-antibody) is listed as 0%.

B1: hPTH(1-84): full-length human PTH listed in the EIA kit specificity (protein, UniProt P01270 32-115, looked up)
Parathyroid hormone: SVSEIQLMHNLGKHLNSMERVEWLRKKLQDVHNFVALGAPLAPRDAGSQRPRKKEDNVLVESHEKSLGEADKADVNVLTKAKSQ
modifications: Parathyroid hormone
In the case of B1, the “Specificity of the assay” value (PTH (1-34)-antibody) is listed as 0%.
